In patent publication US8802094B2, “Method of reducing phosphate absorption by administering orally an IgY anti-intestinal sodium phosphate cotransporter type 2B antibody” (Wisconsin Alumni Research Foundation, priority 2006, dated 2014):

Test system: chicken intestinal alkaline phosphatase
Test: Feeding anti-intestinal alkaline phosphatase egg antibody to chicks with active vitamin D: plasma phosphorous
Type: in vivo, chicken (Single Comb White Leghorn chicks)
Conditions: leghorn chicks, 10 days
Procedure: Single Comb White Leghorn laying hens were used for antibody production (3 hens per peptide antigen). Chicken intestinal alkaline phosphatase was purchased from Worthington. To prepare a vaccine for each hen 0.5 mg of chicken intestinal alkaline phosphatase was diluted to a final concentration of 0.5 ml PBS and mixed with 0.5 ml of Freund's complete adjuvant (first injection) or incomplete adjuvant (booster vaccination) to form a water in oil emulsification capable of holding a bead when dripped on ice water. The hen was then injected in four sites (each leg and each breast) with 0.25 ml of the vaccine emulsion intramuscularly. The booster injection in incomplete adjuvant occurred 7 days later.
In approximately 30 day lots, egg yolks from each hen were separated from whole eggs, mixed and lyophilized. Dried egg yolk powder containing the antibody was stored at room temperature until use in animal feeding studies.
The chicken model used in this study was described by Biehl and Baker, J. Nutr. 1997, 127:2054-2059 with the exception of antibodies to intestinal alkaline phosphatas. The negative control used in this study was a Pi deficient diet (Pi=inorganic phosphate which are largely mineral phosphates or phosphate from animal tissues and products such as milk and eggs), where the dietary phosphorous used was phytic phosphate. […]

C=C1/C(=C\C=C2/CCC[C@]3(C)[C@@H]([C@H](C)CCCC(C)C)CC[C@@H]23)C[C@@H](O)C[C@@H]1O [Active vitamin D, 1α-hydroxyvitamin D3]
effect on plasma phosphorous levels (in words) (Pi deficient diet, antibody vs active vitamin D alone, vitamin D vs negative control): increased blood phosphorous levels in comparison to the negative control
Plasma phosphate (Pi deficient phytic phosphorous diet, 1α-hydroxyvitamin D3 20 μg/kg diet alone or plus antibody 1 g/kg diet): 6.70 mg/dL
